# Measured values as given in patent US7253286B2, “Nitrogen-containing aromatic derivatives” (Eisai Co., Ltd, priority 2000, dated 2007).
# Tests used:
# [1] = tested on: Human Umbilical Vein Endothelial Cells (HUVECs); experiment: Inhibition against invasive tube formation by vascular endothelial cells in response to stimulation by angiogenic factor mixture; format: cell-based; design: key: the number of tubes formed in the absence of the test substance was designated as +++; scored on the 5-level scale of +++, ++, +, +/−, −; scored on the 5-level scale of +++, ++, +, +/−, −; scored on the 5-level scale of +++, ++, +, +/−, −; − was assigned if absolutely no tubes formed; settings: HUVEC on fibrin gel, EGF/FGF2/VEGF/HGF/TNF-α mixture, 6th day, MTT staining; for number of tubes formed in the fibrin gel (score) at 0.01 μM: test substance 0.01 μM; for number of tubes formed in the fibrin gel (score) at 0.1 μM: test substance 0.1 μM; for number of tubes formed in the fibrin gel (score) at 1.0 μM: test substance 1.0 μM
# Experimental: Inhibition Against Invasive Tube Formation by Vascular Endothelial Cells in Response to Stimulation by Angiogenic Factor Mixture
# Human Umbilical Vein Endothelial Cells (HUVECs) were isolated according to a reported method (Shinseikagaku Jikken Koza [New Biochemistry Experiment Lectures], “Saibo Baiyo Gijutsu” [Cell Culturing Techniques], p.197–202), and were cultured in a 5% CO2 incubator (37° C.) using EGM-2 medium (purchased from Clonetics Corp.) until the cells reached confluency. After adding 0.4 ml of bovine fibrinogen (purchased from Sigma Co.) to the inner well of a Transwell culturing plate (purchased from Coster Inc.), it was hardened with 0.7 units/ml of thrombin (purchased from Sigma Co.). The HUVECs were recovered using trypsin-EDTA and then suspended in human endothelial serum free medium basal growth medium (hereinafter abbreviated as SFM, purchased from GIBCO BRL), and 0.4 ml of the cell suspension (1.4×10^5 cells) was seeded onto the hardened fibrin gel and cultured for approximately 4 hours in a 5% CO2 incubator (37° C.). After 4 hours, there was added to the outer chamber of the Transwell 1.5 ml of an SFM solution containing a mixture of angiogenic factors {10 ng/ml EGF (purchased from GIBCO BRL), 30 ng/ml FGF2 (purchased from GIBCO BRL), 75 ng/ml VEGF (purchased from Wako Pure Chemical Industries Co., Ltd.), 50 ng/ml HGF (purchased from R&D Co.) and 7.5 ng/ml TNF-α (purchased from Genzyme Corp.) [The concentrations of the angiogenic factors differed slightly according to the HUVEC lot.]} and a diluted test substance, and culturing was carried out in a 5% CO2 incubator (37° C.). On the 2nd and 4th days after adding the test substance, the medium was exchanged with 1.5 ml of freshly prepared SFM solution containing the angiogenic factor mixture and test substance. Upon aspirating off the culture supernatant in the inner well on the 6th day after the initial addition of the test substance, 0.4 ml of a 3.3 mg/ml MTT solution dissolved in PBS (purchased from Sigma Corp.) was added and culturing was performed for approximately 1 hour in a 5% CO2 incubator (37° C.). The number of tubes formed in the fibrin gel stained with MTT was scored based on microscope observation. Specifically, the number of tubes formed in the absence of the test substance was designated as +++, while − was assigned if absolutely no tubes formed. The number of tubes formed in the presence of the test substance was scored on the 5-level scale of +++, ++, +, +/−, − to evaluate the strength of inhibition of the test substance.
# [2] = tested on: Human Umbilical Vein Endothelial Cells (HUVECs); experiment: Inhibition against sandwich tube formation by vascular endothelial cells in response to stimulation by VEGF; format: cell-based; settings: HUVEC in collagen gel sandwich, stimulation by VEGF (25 ng/ml VEGF and 10 ng/ml EGF), 4th day, total tube length, read-out: IC50 (concentration required for 50% inhibition of tube formation)
# Experimental: Inhibition Against Sandwich Tube Formation by Vascular Endothelial Cells in Response to Stimulation by Angiogenic Factor
# Human Umbilical Vein Endothelial Cells (HUVECS) were isolated by the same method as in Pharmacological Test Example 1, and were cultured in a 5% CO2 incubator (37° C.) using EGM-2 medium (purchased from Clonetics Corp.) until the cells reached confluency.
# An ice-cooled mixture of collagen: 5× RPMI 1640: reconstitution buffer (all purchased from Nitta Gelatin, Inc.) at 7:2:1 was dispensed at 0.4 ml into each well of a 24-well plate, and then stationed for 40 minutes in a 5% CO2 incubator (37° C.) for gelling. The HUVECs were recovered using trypsin-EDTA and then suspended in human endothelial serum free medium (SFM, purchased from GIBCO BRL) containing added angiogenic factors [20 ng/ml FGF2 (purchased from GIBCO BRL) and 10 ng/ml EGF (purchased from GIBCO BRL), or 25 ng/ml VEGF (purchased from Wako Pure Chemical Industries Co., Ltd.) and 10 ng/ml EGF, or 30 ng/ml HGF (purchased from R&D Co.) and 10 ng/ml EGF], and the cell suspension was added at 0.4 ml to each well (with the cell counts differing slightly according to the HUVEC lot), and cultured overnight in a 5% CO2 incubator (37° C.). On the following day, the medium on the upper layer was aspirated off, and then 0.4 ml of an ice-cooled mixture of collagen: 5× RPMI 1640: reconstitution buffer (all purchased from Nitta Gelatin, Inc.) at 7:2:1 was superposed into each well prior to stationing for 4 hours in a 5% CO2 incubator (37° C.) for gelling. After adding 1.5 ml of an SFM solution containing each of the aforementioned angiogenic factors and a diluted test substance onto the upper layer, culturing was performed in a 5% CO2 incubator (37° C.). Upon aspirating off the culture supernatant in each well on the 4th day after addition of the test substance, 0.4 ml of a 3.3 mg/ml MTT solution dissolved in PBS (purchased from Sigma Corp.) was added to each well and culturing was performed for approximately 2 hours in a 5% CO2 incubator (37° C.). The tubes formed in the collagen gel of each well were stained by the MTT, the tube images were loaded into a computer (Macintosh), and the total length of the tubes was determined by image analysis software “MacScope” (purchased from Mitani Corp.). The ratio of the total length of the tubes formed in the well containing the test substance with respect to the total length of the tubes formed in the well containing no test substance was expressed as a percentage, and the concentration of each test substance required for 50% inhibition of tube formation (IC50) was determined from the ratio value.
SMILES,number of tubes formed in the fibrin gel (score) at 0.01 μM [1],number of tubes formed in the fibrin gel (score) at 0.1 μM [1],number of tubes formed in the fibrin gel (score) at 1.0 μM [1],IC50 [2]
"CCN(CC)CCOc1ccc(-c2cc3c(Oc4ccc(NC(=O)NC5CC5)c(Cl)c4)ncnc3[nH]2)cc1 [Example 153, 1-(2-Chloro-4-{6-[4-(2-diethylaminoethoxy)-phenyl]-7H-pyrrolo[2,3-d]pyrimidin-4-yloxy}phenyl)-3-cyclopropylurea]",+/−,−,−,0.02 nM
"COc1ccc(NC(=O)Nc2ccc(Oc3ccnc4cc(OCCOCCO)c(C#N)cc34)cc2)cc1 [Example 72, N-(4-(6-Cyano-7-(2-(2-hydroxyethoxy)ethoxy)-4-quinolyl)oxyphenyl)-N′-(4-methoxyphenyl)urea]",+++,−,−,22 nM
"CCN(CC)CCCOc1cc2nccc(Oc3ccc(NC(=O)Nc4ccccc4)cc3)c2cc1C#N [Example 75, N-(4-(6-Cyano-7-(3-(diethylamino)propoxy)-4-quinolyloxy)phenyl)-N′-phenylurea]",+++,+/−,−,1.4 nM
"O=C(CCCN1CCC(O)CC1)Nc1cc(Oc2ccc3c(ccn3C(=O)Nc3ccccc3)c2)ccn1 [Example 189, N1-Phenyl-5-[(2-{[4-(4-hydroxypiperidino)butanoyl]amino}-4-pyridyl)oxy]-1H-1-indolecarboxamide]",+/−,−,−,0.3 nM
"COc1cc2nccc(Sc3ccc(NC(=O)Nc4ccc(F)cc4)s3)c2cc1C(N)=O [Example 245, 4-(5-(3-(4-Fluorophenyl)ureido)thiophen-2-ylsulfanyl)-7-methoxyquinoline-6-carboxamide]",+/−,−,−,
"COc1cc2nccc(Oc3ccc(NC(=O)NC4CC4)c(Cl)c3)c2cc1C(=O)NCCF [Example 415, N6-(2-Fluoroethyl)-4-(3-chloro-4-(((cyclopropylamino)carbonyl)amino)phenoxy)-7-methoxy-6-quinolinecarboxamide]",+/−,−,−,3.8 nM
"O=C(Nc1ccc(Oc2ncnc3[nH]c(-c4ccccc4)cc23)cc1)Nc1cccc(F)c1 [Example 172, 1-(3-Fluorophenyl)-3-[4-(6-phenyl-7H-pyrrolo[2,3-d]pyrimidin-4-yloxy)phenyl]urea]",+,+/−,+/−,
"COc1cc2nccc(Oc3ccc(NC(=O)NC4CC4)c(Cl)c3)c2cc1C(N)=O [Example 368, 4-(3-Chloro-4-(cyclopropylaminocarbonyl)aminophenoxy)-7-methoxy-6-quinolinecarboxamide]",−,−,−,5.4 nM
"CS(=O)(=O)c1cccc(NC(=O)Nc2ccc(Oc3ccnc4cc(OCCCN5CCOCC5)c(C#N)cc34)cc2)c1 [Example 74, N-(4-(6-Cyano-7-(3-(4-morpholino)propoxy)-4-quinolyl)oxyphenyl)-N′-(3-(methylsulfonyl)phenyl)urea]",++,−,−,5.9 nM
"O=C(Nc1cc(Oc2ccc3c(ccn3C(=O)NC3CC3)c2)ccn1)C1CC1 [Example 212, N1-Cyclopropyl-5-({2-[(cyclopropylcarbonyl)amino]-4-pyridyl}oxy)-1H-1-indolecarboxamide]",+/−,−,−,
